Measurements as given in patent US20230233541A1, “SUBSTITUTED BENZAMIDES AS MODULATORS OF TREX1” (Constellation Pharmaceuticals, Inc., priority 2020, published 2023).

Legend:
[1] = target: T1, full length human TREX1 (Homo sapiens, UniProt Q9NSU2); assay: TREX1 Biochemical Assay (fluorescence assay, degradation of dsDNA substrate); settings: 150 pM TREX1, 60 nM dsDNA substrate, 25 minutes at room temperature; read-out: hTREX1 EC50
T1 construct: N-terminally His-Tev tagged full length human TREX1; His-Tev (His tag with TEV protease site) (N); made in house; host or cells: E. coli
T1 sequence (Q9NSU2 1-314): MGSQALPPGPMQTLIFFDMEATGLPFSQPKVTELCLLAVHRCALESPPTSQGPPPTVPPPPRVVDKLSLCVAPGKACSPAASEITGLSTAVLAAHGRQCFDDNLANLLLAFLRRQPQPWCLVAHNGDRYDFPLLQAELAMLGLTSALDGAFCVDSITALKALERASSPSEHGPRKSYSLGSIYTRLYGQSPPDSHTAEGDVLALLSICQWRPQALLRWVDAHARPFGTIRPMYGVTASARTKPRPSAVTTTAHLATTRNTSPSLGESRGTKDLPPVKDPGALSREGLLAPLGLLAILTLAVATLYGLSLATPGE
Summary of the method: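 E. coli-expressed His-Tev-tagged full-length TREX1 (150 pM) with 60 nM quenched-fluorophore dsDNA in Tris pH 7.4, 150 mM NaCl, 100 mM MgCl2, 1% DMSO, 25 min room temperature, 10-point dose-response. EDTA stop; fluorescence 615 nm (ex 570 nm); IC50 from four-parameter fit against pre-quenched and no-inhibitor controls.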

[2] = target: T2, human TREX2 (residues M44-A279) (Homo sapiens, UniProt Q9BQ50); assay: TREX2 Biochemical Assay (fluorescence assay, degradation of dsDNA substrate); settings: 2.5 nM TREX2, 60 nM dsDNA substrate, 25 minutes at room temperature; read-out: hTREX2 EC50
T2 construct: human TREX2 (residues M44-A279, expressed in E. coli); His-Tev (His tag with TEV protease site) (N); made in house; host or cells: E. coli
T2 sequence (Q9BQ50 44-279 isoform Q9BQ50-1): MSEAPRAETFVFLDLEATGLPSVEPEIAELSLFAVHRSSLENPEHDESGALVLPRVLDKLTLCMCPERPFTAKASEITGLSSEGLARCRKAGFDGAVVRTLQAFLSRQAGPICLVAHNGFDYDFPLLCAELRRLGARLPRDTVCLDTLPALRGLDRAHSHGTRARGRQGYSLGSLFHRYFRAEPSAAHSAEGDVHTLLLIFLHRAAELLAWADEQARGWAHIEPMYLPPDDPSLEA
Summary of the method: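 His-Tev-tagged human TREX2 (M44-A279, E. coli-expressed) at 2.5 nM final, with 60 nM TEX615/quencher-labelled dsDNA in pH 7.4 Tris buffer with MgCl2 and 1.0% DMSO, 10-point dose-response, 25 min at room temperature, then EDTA quench. Fluorescence read at 615 nm (ex 570 nm). IC50 from four-parameter fit against pre-quenched and no-inhibitor controls.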

Compound | EC50 [1] | EC50 [2]
O=C(c1cccc(F)c1)N(CCc1ccccc1)Cc1cccnc1 [Compound 131] | > 10 µM | > 100 µM
O=C(c1cccc(F)c1)N(Cc1cccnc1)CC1CCCCC1 [Compound 132] | > 10 µM | > 100 µM
O=C(c1cccc(F)c1)N(CCc1ccc(Cl)cc1Cl)Cc1cccnc1 [Compound 133] | > 10 µM | > 100 µM
O=C(c1cccc(F)c1)N(Cc1cccnc1)C1Cc2ccccc2C1 [Compound 134] | > 10 µM | > 100 µM
Cc1cccc(CN(Cc2cccnc2)C(=O)c2cccc(F)c2)c1Cl [Compound 135] | 1 to 10 µM | 10 to 100 µM
O=C(c1cccc(F)c1)N(Cc1ccc(Cl)cc1)Cc1cccnc1 [Compound 138, N-[(4-chlorophenyl)methyl]-3-fluoro-N-[(pyridin-3-yl)methyl]benzamide] | > 10 µM | > 100 µM
O=C(c1cccc(F)c1)N(Cc1cccnc1)Cc1ccccc1Cl [Compound 139] | 1 to 10 µM | > 100 µM
Cc1nocc1C(=O)N(Cc1cccnc1)Cc1ccc(Cl)cc1Cl [Compound 140] | > 10 µM | > 100 µM
COC(=O)c1ccc(CN(Cc2ccc(Cl)cc2Cl)C(=O)c2cccc(F)c2)cn1 [Compound 141, methyl 5-({N-[(2,4-dichlorophenyl)methyl]-1-(3-fluorophenyl)formamido}methyl)pyridine-2-carboxylate] | > 10 µM | > 100 µM
NC(=O)c1ccc(CN(Cc2ccc(Cl)cc2Cl)C(=O)c2cccc(F)c2)cn1 [Compound 143, 5-({N-[(2,4-dichlorophenyl)methyl]-1-(3-fluorophenyl)formamido}methyl)pyridine-2-carboxamide] | > 10 µM | > 100 µM
CNC(=O)c1ccc(CN(Cc2ccc(Cl)cc2Cl)C(=O)c2cccc(F)c2)cn1 [Compound 144, 5-({N-[(2,4-dichlorophenyl)methyl]-1-(3-fluorophenyl)formamido}methyl)-N-methylpyridine-2-carboxamide] | 1 to 10 µM | > 100 µM
O=C(c1cccc(F)c1)N(Cc1ccc(CO)nc1)Cc1ccc(Cl)cc1Cl [Compound 145, N-(2,4-dichlorobenzyl)-3-fluoro-N-((6-(hydroxymethyl)pyridin-3-yl)methyl)benzamide] | 1 to 10 µM | 10 to 100 µM
Nc1ccc(CN(Cc2ccc(Cl)cc2Cl)C(=O)c2cccc(F)c2)cn1 [Compound 146, N-[(6-aminopyridin-3-yl)methyl]-N-[(2,4-dichlorophenyl)methyl]-3-fluorobenzamide] | 1 to 10 µM | > 100 µM
NC(=O)c1ccc(CN(Cc2cccc(Cl)c2Cl)C(=O)c2cccc(F)c2)cn1 [Compound 149] | > 10 µM | > 100 µM
NC(=O)c1ccc(CN(Cc2cccc(Cl)c2Cl)C(=O)c2cc(F)cc(F)c2)cn1 [Compound 150] | 1 to 10 µM | > 100 µM
C[C@@H](c1ccc(Cl)cc1Cl)N(Cc1cccnc1)C(=O)c1cccc(F)c1 [Compound 156] | > 10 µM | > 100 µM
O=C(O)Cn1cc(CN(Cc2ccc(Cl)cc2Cl)C(=O)c2cc(F)cc(F)c2)cn1 [Compound 165, 2-(4-((N-(2,4-dichlorobenzyl)-3,5-difluorobenzamido)methyl)-1H-pyrazol-1-yl)acetic acid] | 1 to 10 µM | > 100 µM
O=C(O)c1ccc(CN(Cc2ccc(Cl)cc2Cl)C(=O)c2cc(F)cc(F)c2)cc1 [Compound 168] | 1 to 10 µM | 10 to 100 µM
N#CCC[C@H](c1ccccc1Cl)N(Cc1cccnc1)C(=O)c1cc(F)cc(F)c1 [Compound 178] | 1 to 10 µM | 10 to 100 µM
O=C1NCc2cc(CN(Cc3ccccc3Cl)C(=O)c3cc(F)cc(F)c3)cnc21 [Compound 182] | 1 to 10 µM | 10 to 100 µM
COc1ccnc(CN(Cc2ccc(C(=O)O)nc2)C(=O)c2cc(F)cc(F)c2)c1Cl [Compound 189] | 0.1 to 1 µM | 10 to 100 µM

Continued, values first:

EC50 [1] | EC50 [2] | Compound
0.1 to 1 µM | 10 to 100 µM | O=C(c1cccc(F)c1)N(Cc1cccnc1)Cc1cccc(Cl)c1Cl [Compound 136]
0.1 to 1 µM | 10 to 100 µM | O=C(c1cccc(F)c1)N(Cc1cccnc1)Cc1cccc(F)c1Cl [Compound 137]
0.1 to 1 µM | 10 to 100 µM | O=C(O)c1ccc(CN(Cc2ccc(Cl)cc2Cl)C(=O)c2cccc(F)c2)cn1 [Compound 142, 5-({N-[(2,4-dichlorophenyl)methyl]-1-(3-fluorophenyl)formamido}methyl)pyridine-2-carboxylic acid]
< 0.1 µM | 1 to 10 µM | O=C(O)c1ccc(CN(Cc2cccc(Cl)c2Cl)C(=O)c2cccc(F)c2)cn1 [Compound 147]
< 0.1 µM | < 1 µM | O=C(O)c1ccc(CN(Cc2cccc(Cl)c2Cl)C(=O)c2cc(F)cc(F)c2)cn1 [Compound 148]
0.1 to 1 µM | 10 to 100 µM | O=C(O)c1ccc(CN(Cc2ccccc2Cl)C(=O)c2cccc(F)c2)cn1 [Compound 151]
< 0.1 µM | 1 to 10 µM | O=C(O)c1ccc(CN(Cc2ccccc2Cl)C(=O)c2cc(F)cc(F)c2)cn1 [Compound 152]
0.1 to 1 µM | 10 to 100 µM | C[C@H](c1ccc(Cl)cc1Cl)N(Cc1cccnc1)C(=O)c1cccc(F)c1 [Compound 155]
< 0.1 µM | 1 to 10 µM | CC[C@H](c1cccc(OC)c1Cl)N(Cc1ccc(C(=O)O)nc1)C(=O)c1cc(F)cc(F)c1 [Compound 166]
< 0.1 µM | 1 to 10 µM | CC[C@@H](c1cccc(OC)c1Cl)N(Cc1ccc(C(=O)O)nc1)C(=O)c1cc(F)cc(F)c1 [Compound 167]
0.1 to 1 µM | 10 to 100 µM | O=C(c1cc(F)cc(F)c1)N(Cc1ccc(-c2nnn[nH]2)nc1)Cc1ccccc1Cl [Compound 169]
< 0.1 µM | 10 to 100 µM | O=C(c1cc(F)cc(F)c1)N(Cc1ccc(-c2ccn[nH]2)nc1)Cc1ccccc1Cl [Compound 170]
0.1 to 1 µM | 10 to 100 µM | O=C(c1cc(F)cc(F)c1)N(Cc1ccc(-c2cnn[nH]2)nc1)Cc1ccccc1Cl [Compound 171]
< 0.1 µM | 1 to 10 µM | O=C(O)c1ccc(CN(Cc2ccccc2C(F)(F)F)C(=O)c2cc(F)cc(F)c2)cn1 [Compound 172]
0.1 to 1 µM | 10 to 100 µM | C[C@H](c1cccc(Cl)c1Cl)N(Cc1ccc(C(=O)O)nc1)C(=O)c1cc(F)cc(F)c1 [Compound 173]
< 0.1 µM | < 1 µM | C[C@@H](c1cccc(Cl)c1Cl)N(Cc1ccc(C(=O)O)nc1)C(=O)c1cc(F)cc(F)c1 [Compound 174]
0.1 to 1 µM | > 100 µM | O=C(c1cc(F)cc(F)c1)N(Cc1ccc(-n2cccn2)nc1)Cc1ccc(Cl)cc1Cl [Compound 175]
0.1 to 1 µM | 1 to 10 µM | O=C(c1cc(F)cc(F)c1)N(Cc1cnccc1Cl)Cc1cnccc1Cl [Compound 176]
0.1 to 1 µM | 10 to 100 µM | N#CCC[C@@H](c1ccccc1Cl)N(Cc1cccnc1)C(=O)c1cc(F)cc(F)c1 [Compound 177]
0.1 to 1 µM | 1 to 10 µM | O=C(c1cc(F)cc(F)c1)N(Cc1cccnc1CO)Cc1cccc(Cl)c1Cl [Compound 180]
0.1 to 1 µM | 1 to 10 µM | O=C(c1cc(F)cc(F)c1)N(Cc1cnc2c(=O)[nH]c(=O)[nH]c2c1)Cc1cccc(Cl)c1Cl [Compound 181]
0.1 to 1 µM | 10 to 100 µM | O=C(c1cc(F)cc(F)c1)N(Cc1cnc2c(=O)[nH]cnc2c1)Cc1ccccc1Cl [Compound 183]
0.1 to 1 µM | 10 to 100 µM | Cn1ncc(CN(Cc2ccc(C(=O)O)nc2)C(=O)c2cc(F)cc(F)c2)c1Cl [Compound 184]
0.1 to 1 µM | 10 to 100 µM | Cn1cc(CN(Cc2ccc(C(=O)O)nc2)C(=O)c2cc(F)cc(F)c2)c(C(F)(F)F)n1 [Compound 185]
< 0.1 µM | 1 to 10 µM | O=C(O)c1ccc(CN(Cc2c(Cl)cccc2Cl)C(=O)c2cc(F)cc(F)c2)cn1 [Compound 186]
< 0.1 µM | 1 to 10 µM | O=C(O)c1ccc(CN(Cc2cc(Cl)ccc2Cl)C(=O)c2cc(F)cc(F)c2)cn1 [Compound 187]
< 0.1 µM | 1 to 10 µM | COc1nccc(CN(Cc2ccc(C(=O)O)nc2)C(=O)c2cc(F)cc(F)c2)c1Cl [Compound 188]
< 0.1 µM | 1 to 10 µM | O=C(O)c1ccc(CN(Cc2ncc3ccccc3c2Cl)C(=O)c2cc(F)cc(F)c2)cn1 [Compound 190]
